Measured values reported in patent US10512669B2, “Blockade of inflammatory proteases with cyclic peptides” (The Regents of the University of California, priority 2011, dated 2019).
Bridge positions count the residues as written; N and C are the ends. Peptide text beside a SMILES is read from it.

What was measured:
[1] = target: recombinant TACE (rTACE, ADAM17) (Homo sapiens, UniProt P78536); experiment: recombinant TACE fluorometric inhibition assay; format: biochemical
[2] = target: TACE expressed on THP-1 cells (Homo sapiens, UniProt P78536); details: read-out: IC50 TACE blockade on THP-1 cells; literature study (ref. 1); cited from earlier work
Sequence of TACE expressed on THP-1 cells (P78536 215-824): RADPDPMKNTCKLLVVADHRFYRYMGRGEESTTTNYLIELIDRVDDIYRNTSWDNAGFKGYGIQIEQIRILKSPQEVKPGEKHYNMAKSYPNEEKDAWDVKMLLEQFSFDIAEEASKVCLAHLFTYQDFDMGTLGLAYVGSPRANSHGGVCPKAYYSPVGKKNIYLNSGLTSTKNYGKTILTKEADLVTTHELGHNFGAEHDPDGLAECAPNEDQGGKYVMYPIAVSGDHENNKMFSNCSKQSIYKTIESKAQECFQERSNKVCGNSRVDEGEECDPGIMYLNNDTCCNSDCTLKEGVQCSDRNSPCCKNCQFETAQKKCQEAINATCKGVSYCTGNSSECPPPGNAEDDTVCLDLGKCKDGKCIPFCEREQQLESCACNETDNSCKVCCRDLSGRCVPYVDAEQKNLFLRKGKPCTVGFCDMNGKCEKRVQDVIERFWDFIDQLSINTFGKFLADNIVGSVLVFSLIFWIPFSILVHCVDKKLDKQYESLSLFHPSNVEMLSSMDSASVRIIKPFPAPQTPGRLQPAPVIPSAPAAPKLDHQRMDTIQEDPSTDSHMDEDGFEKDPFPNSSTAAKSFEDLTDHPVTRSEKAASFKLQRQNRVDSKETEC

[3] = 50 μg/ml in 50 mg/ml human serum albumin, 72 hours, room temperature
in vitro = details: human, plasma
chimpanzees = experiment: escalating i.v. doses in adult chimpanzees: toxicity and immunogenicity; details: two adult chimpanzees

Sequence of recombinant TACE (rTACE, ADAM17) (P78536 215-824): as above

## HNP-2: human α-defensin from neutrophils (CYCRIPACIAGERRYGTCIYQGRLWAFCC)
[1]
  inhibition of rTACE: neither human α-defensin (HNP-2 (SEQ_ID NO. 31), HNP-4 (SEQ_ID NO. 33)) inhibited rTACE

## CNC(=O)[C@H](Cc1c[nH]c2ccccc12)NC(=O)[C@@H](CC(=O)NO)CC(C)C [GM6001]
[2]
  IC50: 5.5 µM

## CC[C@H](C)[C@@H]1NC(=O)[C@@H]2CSSC[C@H](NC(=O)[C@H](CCCNC(=N)N)NC(=O)[C@@H]3CSSC[C@H](NC1=O)C(=O)N[C@@H]([C@@H](C)O)C(=O)N[C@@H](CCCNC(=N)N)C(=O)NCC(=O)N[C@@H](Cc1ccccc1)C(=O)N3)C(=O)N[C@@H](CC(C)C)C(=O)N[C@H]1CSSC[C@H](NC(=O)[C@H](C(C)C)NC(=O)CNC(=O)[C@H](CCCNC(=N)N)NC(=O)[C@H](CCCNC(=N)N)NC1=O)C(=O)N[C@@H](CCCNC(=N)N)C(=O)N2 [RTD-1] (cyclo(GFCRCLCRRGVCRCICTR); disulfide 3-16, 5-14, 7-12 (inferred); ring closure inferred)
[3]
  peptide unaltered: more than 95%
In vitro
  remaining at 72 h, 50 μg/ml: > 95%
chimpanzees
  antibody to RTD-1 (immunogenicity): Neither animal produced an antibody
chimpanzees; following all injections
  clinical chemistry and hematologic laboratory values: within normal limits

## HNP-4: human α-defensin from neutrophils (VCSCRLVFCRRTELRVGNCLIGGVSFTYCCTRV)
[1]
  inhibition of rTACE: neither human α-defensin (HNP-2 (SEQ_ID NO. 31), HNP-4 (SEQ_ID NO. 33)) inhibited rTACE
